Measurements reported in patent publication US8729082B2, “Substituted imidazoquinoxalines” (Bayer Intellectual Property GmbH, priority 2009, dated 2014).

Each molecule was assayed against T1, human kinase Mps-1 (Homo sapiens, UniProt P33981) (assay: Mps-1 kinase assay (HTRF)). Details: lowATP; mean; read-out: Mps1 lowATP mean IC50.
T1 construct: N-terminally GST-tagged human full length recombinant Mps-1 kinase; purchased Invitrogen, Karslruhe, Germany PV4071
T1 sequence (P33981 1-857): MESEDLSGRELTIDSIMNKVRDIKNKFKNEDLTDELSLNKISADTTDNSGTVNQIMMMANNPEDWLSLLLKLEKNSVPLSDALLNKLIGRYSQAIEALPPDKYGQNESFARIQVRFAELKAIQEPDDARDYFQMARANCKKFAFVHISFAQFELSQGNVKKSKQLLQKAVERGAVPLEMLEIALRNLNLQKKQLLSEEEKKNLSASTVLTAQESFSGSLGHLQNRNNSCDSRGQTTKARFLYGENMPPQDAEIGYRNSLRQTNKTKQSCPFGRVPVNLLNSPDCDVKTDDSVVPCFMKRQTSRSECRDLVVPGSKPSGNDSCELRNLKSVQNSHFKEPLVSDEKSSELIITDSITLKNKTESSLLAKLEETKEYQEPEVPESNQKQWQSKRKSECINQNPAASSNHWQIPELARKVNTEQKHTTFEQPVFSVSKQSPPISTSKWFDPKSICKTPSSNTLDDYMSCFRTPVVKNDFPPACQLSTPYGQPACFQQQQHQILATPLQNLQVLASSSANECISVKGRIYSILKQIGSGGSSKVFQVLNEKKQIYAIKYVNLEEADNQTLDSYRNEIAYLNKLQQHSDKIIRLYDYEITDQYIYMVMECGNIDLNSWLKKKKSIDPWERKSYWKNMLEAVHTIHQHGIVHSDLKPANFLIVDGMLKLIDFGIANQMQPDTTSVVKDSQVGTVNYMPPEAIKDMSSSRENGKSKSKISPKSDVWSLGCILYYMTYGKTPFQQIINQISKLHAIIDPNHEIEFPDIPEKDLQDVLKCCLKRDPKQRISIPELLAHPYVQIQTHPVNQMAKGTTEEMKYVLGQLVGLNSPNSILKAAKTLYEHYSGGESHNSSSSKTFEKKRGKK
Assay type: biochemical
Outline: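 HTRF readout: EDTA-stopped reactions incubated 1 h with europium anti-phospho(Ser/Thr) antibody and streptavidin-XLent, emission ratio 665/620 nm after 350 nm excitation. Kinase step: compound pre-bound 15 min to ~1 nM GST-Mps-1, then 60 min at 22 °C with ATP and biotin-peptide substrate; inhibition scaled between no-inhibitor (0%) and no-enzyme (100%) controls.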
In the case of `CC(C)(C)OC(=O)NCCCNc1nc2cc(F)c(F)cc2n2c(-c3ccc(C(=O)NC4CC4)c(Cl)c3)cnc12` [Example 2-140, tert-butyl [3-({1-[3-chloro-4-(cyclopropylcarbamoyl)phenyl]-7,8-difluoroimidazo[1,2-a]quinoxalin-4-yl}amino)propyl]carbamate], the IC50 is reported as 3410 nM.
Work on `Cn1ccc(CNc2nc3cc(F)c(F)cc3n3c(-c4ccc(C(=O)NC5CC5)c(Cl)c4)cnc23)n1` [Example 2-141, 2-chloro-N-cyclopropyl-4-(7,8-difluoro-4-{[(1-methyl-1H-pyrazol-3-yl)methyl]amino}imidazo[1,2-a]quinoxalin-1-yl)benzamide] yielded an IC50 of 4450 nM.
`Cn1cc(CNc2nc3cc(F)c(F)cc3n3c(-c4ccc(C(=O)NC5CC5)c(Cl)c4)cnc23)cn1` [Example 2-142, 2-chloro-N-cyclopropyl-4-(7,8-difluoro-4-{[(1-methyl-1H-pyrazol-4-yl)methyl]amino}imidazo[1,2-a]quinoxalin-1-yl)benzamide] showed an IC50 of 2280 nM.
`NS(=O)(=O)CCNc1nc2cc(F)c(F)cc2n2c(-c3ccc(C(=O)NC4CC4)c(Cl)c3)cnc12` [Example 2-143, 2-chloro-N-cyclopropyl-4-{7,8-difluoro-4-[(2-sulfamoylethyl)amino]imidazo[1,2-a]quinoxalin-1-yl}benzamide] showed an IC50 of 1240 nM.
In the case of `CCCNc1nc2cc(C)c(C)cc2n2c(-c3ccc(C(=O)NC4CC4)cc3)cnc12` [Example 2-144, N-cyclopropyl-4-[7,8-dimethyl-4-(propylamino)imidazo[1,2-a]quinoxalin-1-yl]benzamide], the IC50 is reported as 4.15 nM.
`Cc1cc2nc(NCCC(C)C)c3ncc(-c4ccc(C(=O)NC5CC5)cc4)n3c2cc1C` [Example 2-145, N-cyclopropyl-4-{7,8-dimethyl-4-[(3-methylbutyl)amino]imidazo[1,2-a]quinoxalin-1-yl}benzamide] showed an IC50 of 5.61 nM.
`Cc1cc2nc(NCCCCO)c3ncc(-c4ccc(C(=O)NC5CC5)cc4)n3c2cc1C` [Example 2-146, N-cyclopropyl-4-{4-[(4-hydroxybutyl)amino]-7,8-dimethylimidazo[1,2-a]quinoxalin-1-yl}benzamide] was tested, and the IC50 was 2.83 nM.
In the case of `CCNc1nc2cc(C)c(C)cc2n2c(-c3ccc(C(=O)NC4CC4)cc3)cnc12` [Example 2-147, N-cyclopropyl-4-[4-(ethylamino)-7,8-dimethylimidazo[1,2-a]quinoxalin-1-yl]benzamide], the IC50 is reported as 4.5 nM.
`Cc1cc2nc(NCCCO)c3ncc(-c4ccc(C(=O)NC5CC5)cc4)n3c2cc1C` [Example 2-148, N-cyclopropyl-4-{4-[(3-hydroxypropyl)amino]-7,8-dimethylimidazo[1,2-a]quinoxalin-1-yl}benzamide] was tested, and the IC50 was 5.92 nM.
`CCCCNc1nc2cc(C)c(C)cc2n2c(-c3ccc(C(=O)NC4CC4)cc3)cnc12` [Example 2-149, 4-[4-(butylamino)-7,8-dimethylimidazo[1,2-a]quinoxalin-1-yl]-N-cyclopropylbenzamide] gave an IC50 of 2.86 nM.
Molecule `Cc1cc2nc(NCC3CC3)c3ncc(-c4ccc(C(=O)NC5CC5)cc4)n3c2cc1C` [Example 2-150, N-cyclopropyl-4-{4-[(cyclopropylmethyl)amino]-7,8-dimethylimidazo[1,2-a]quinoxalin-1-yl}benzamide] has an IC50 of 2.64 nM.
`Cc1cc2nc(NCc3ccccn3)c3ncc(-c4ccc(C(=O)NC5CC5)cc4)n3c2cc1C` [Example 2-151, N-cyclopropyl-4-{7,8-dimethyl-4-[(pyridin-2-ylmethyl)amino]imidazo[1,2-a]quinoxalin-1-yl}benzamide] showed an IC50 of 19.5 nM.
Work on `Cc1cc2nc(NCc3cccnc3)c3ncc(-c4ccc(C(=O)NC5CC5)cc4)n3c2cc1C` [Example 2-152, N-cyclopropyl-4-{7,8-dimethyl-4-[(pyridin-3-ylmethyl)amino]imidazo[1,2-a]quinoxalin-1-yl}benzamide] yielded an IC50 of 6.01 nM.
Molecule `Cc1cc2nc(NCc3ccco3)c3ncc(-c4ccc(C(=O)NC5CC5)cc4)n3c2cc1C` [Example 2-153, N-cyclopropyl-4-{4-[(furan-2-ylmethyl)amino]-7,8-dimethylimidazo[1,2-a]quinoxalin-1-yl}benzamide] has an IC50 of 5.22 nM.
With `Cc1cc2nc(NCC(C)C)c3ncc(-c4ccc(C(=O)NC5CC5)cc4)n3c2cc1C` [Example 2-154, N-cyclopropyl-4-{7,8-dimethyl-4-[(2-methylpropyl)amino]imidazo[1,2-a]quinoxalin-1-yl}benzamide] the IC50 was 2.22 nM.
Work on `COCCCNc1nc2cc(C)c(C)cc2n2c(-c3ccc(C(=O)NC4CC4)cc3)cnc12` [Example 2-155, N-cyclopropyl-4-{4-[(3-methoxypropyl)amino]-7,8-dimethylimidazo[1,2-a]quinoxalin-1-yl}benzamide] yielded an IC50 of 7.71 nM.
`Cc1cc2nc(NCc3ccn(C)n3)c3ncc(-c4ccc(C(=O)NC5CC5)cc4)n3c2cc1C` [Example 2-156, N-cyclopropyl-4-(7,8-dimethyl-4-{[(1-methyl-1H-pyrazol-3-yl)methyl]amino}imidazo[1,2-a]quinoxalin-1-yl)benzamide] showed an IC50 of 8.49 nM.
In the case of `Cc1cc2nc(NCc3cnn(C)c3)c3ncc(-c4ccc(C(=O)NC5CC5)cc4)n3c2cc1C` [Example 2-157, N-cyclopropyl-4-(7,8-dimethyl-4-{[(1-methyl-1H-pyrazol-4-yl)methyl]amino}imidazo[1,2-a]quinoxalin-1-yl)benzamide], the IC50 is reported as 5.44 nM.
Work on `CCCNc1nc2cc(C)c(C)cc2n2c(-c3ccc(NC(=O)NC)cc3)cnc12` [Example 2-159, 1-{4-[7,8-dimethyl-4-(propylamino)imidazo[1,2-a]quinoxalin-1-yl]phenyl}-3-methylurea] yielded an IC50 of 163 nM.
Work on `CNC(=O)Nc1ccc(-c2cnc3c(NCCCN4CCOCC4)nc4cc(C)c(C)cc4n23)cc1` [Example 2-160, 1-[4-(7,8-dimethyl-4-{[3-(morpholin-4-yl)propyl]amino}imidazo[1,2-a]quinoxalin-1-yl)phenyl]-3-methylurea] yielded an IC50 of 982 nM.
Work on `CNC(=O)Nc1ccc(-c2cnc3c(NCc4cccc(F)c4)nc4cc(C)c(C)cc4n23)cc1` [Example 2-161, 1-(4-{4-[(3-fluorobenzyl)amino]-7,8-dimethylimidazo[1,2-a]quinoxalin-1-yl}phenyl)-3-methylurea] yielded an IC50 of 1310 nM.
`CNC(=O)Nc1ccc(-c2cnc3c(NCCOC)nc4cc(C)c(C)cc4n23)cc1` [Example 2-162, 1-(4-{4-[(2-methoxyethyl)amino]-7,8-dimethylimidazo[1,2-a]quinoxalin-1-yl}phenyl)-3-methylurea] showed an IC50 of 417 nM.
With `CNC(=O)Nc1ccc(-c2cnc3c(NCc4ccccc4F)nc4cc(C)c(C)cc4n23)cc1` [Example 2-163, 1-(4-{4-[(2-fluorobenzyl)amino]-7,8-dimethylimidazo[1,2-a]quinoxalin-1-yl}phenyl)-3-methylurea] the IC50 was 1470 nM.
Molecule `CNC(=O)Nc1ccc(-c2cnc3c(NCc4ccc(F)cc4)nc4cc(C)c(C)cc4n23)cc1` [Example 2-164, 1-(4-{4-[(4-fluorobenzyl)amino]-7,8-dimethylimidazo[1,2-a]quinoxalin-1-yl}phenyl)-3-methylurea] has an IC50 of 414 nM.
For `CNC(=O)Nc1ccc(-c2cnc3c(NCCCCO)nc4cc(C)c(C)cc4n23)cc1` [Example 2-165, 1-(4-{4-[(4-hydroxybutyl)amino]-7,8-dimethylimidazo[1,2-a]quinoxalin-1-yl}phenyl)-3-methylurea], the IC50 was 265 nM.
`CNC(=O)Nc1ccc(-c2cnc3c(NCc4ccccc4)nc4cc(C)c(C)cc4n23)cc1` [Example 2-166, 1-{4-[4-(benzylamino)-7,8-dimethylimidazo[1,2-a]quinoxalin-1-yl]phenyl}-3-methylurea] was tested, and the IC50 was 609 nM.
